Measurements taken from patent US20240109900A1, “AZABICYCLIC SHP2 INHIBITORS” (IRBM S.P.A., priority 2021, published 2024).

Key:
[1] = molecular target: SHP-2 enzyme (Met1-Leu525) (Homo sapiens (Human), UniProt Q06124); assay: SHP2 inhibition enzymatic assay; type: biochemical; details: 0.5 nM SHP-2 activated by 500 nM IRS1 peptide, 75 μM DiFMUP substrate; read-out: SHP2wt-IC50
Outline: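 SHP-2 (Met1-Leu525), 0.5 nM, activated with 500 nM IRS1 bis-phosphopeptide, preincubated 30 min with compounds in HEPES pH 7.2 buffer with 5 mM DTT. 75 μM DiFMUP added for 30 min at room temperature, stopped with bpV; fluorescence read. IC50 from four-parameter logistic fit of % inhibition.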

[2] = tested on: ERK phosphorylation in KYSE-520 cells; assay: Phospho-ERK cellular assay; type: cell-based; details: Homo sapiens, KYSE-520, 2 h, KYSE-520 cells, 2 h at 37° C., phospho-ERK1/2 (Thr202/Tyr204) TR-FRET; read-out: PERK IC50
Outline: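 TR-FRET read-out of ERK1/2 Thr202/Tyr204 phosphorylation was taken after overnight antibody incubation at room temperature. Before that, KYSE-520 cells were treated 2 h at 37 °C with compound dilutions and lysed 30 min. Percent inhibition relative to vehicle and cell-free wells was fitted four-parametrically to give IC50.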

Chain of SHP-2 enzyme (Met1-Leu525) (Q06124 1-525): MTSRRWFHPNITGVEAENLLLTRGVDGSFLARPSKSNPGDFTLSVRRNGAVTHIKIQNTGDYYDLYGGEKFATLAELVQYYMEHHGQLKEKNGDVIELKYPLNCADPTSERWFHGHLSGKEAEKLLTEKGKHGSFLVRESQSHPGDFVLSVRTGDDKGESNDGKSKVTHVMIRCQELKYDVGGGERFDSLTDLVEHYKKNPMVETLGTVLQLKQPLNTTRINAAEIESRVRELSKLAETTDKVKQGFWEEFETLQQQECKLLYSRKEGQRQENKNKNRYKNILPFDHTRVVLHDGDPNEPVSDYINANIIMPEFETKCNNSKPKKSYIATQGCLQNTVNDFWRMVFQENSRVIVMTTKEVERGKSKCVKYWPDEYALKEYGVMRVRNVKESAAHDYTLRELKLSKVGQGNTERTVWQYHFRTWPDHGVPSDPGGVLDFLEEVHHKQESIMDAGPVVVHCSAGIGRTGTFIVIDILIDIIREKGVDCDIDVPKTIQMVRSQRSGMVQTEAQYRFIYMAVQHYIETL

Row | IC50 [1] | IC50 [2] | Compound
1 | < 500 nM | < 1000 nM | Cc1conc1C1(CN)C2CCN(c3cnc4c(-c5cccc(Cl)c5Cl)n[nH]c4n3)CC21 (stereo not shown) [Example 14, (3-(3-(2,3-dichlorophenyl)-1H-pyrazolo[3,4-b]pyrazin-6-yl)-7-(4-methylisoxazol-3-yl)-3-azabicyclo[4.1.0]heptan-7-yl)methanamine]
2 | < 500 nM | > 5000 nM | NC[C@]1(c2ccccc2F)[C@@H]2CCN(c3cnc4c(-c5ccc(C(=O)O)c(Cl)c5Cl)n[nH]c4n3)C[C@@H]21 [Example 227, 4-(6-((1S,6R,7R)-7-(aminomethyl)-7-(2-fluorophenyl)-3-azabicyclo[4.1.0]heptan-3-yl)-1H-pyrazolo[3,4-b]pyrazin-3-yl)-2,3-dichlorobenzoic acid]
3 | < 500 nM | < 1000 nM | Cc1c(-c2n[nH]c3nc(N4CC[C@@H]5[C@H](C4)[C@@]5(CN)c4ncc(C5CC5)cc4F)cnc23)ccc2nn(C)cc12 [Example 185, ((1S,6R,7S)-7-(5-cyclopropyl-3-fluoropyridin-2-yl)-3-(3-(2,4-dimethyl-2H-indazol-5-yl)-1H-pyrazolo[3,4-b]pyrazin-6-yl)-3-azabicyclo[4.1.0]heptan-7-yl)methanamine]
4 | < 500 nM | < 1000 nM | Cn1cc2c(Cl)c(-c3n[nH]c4nc(N5CCC6C(C5)C6(CN)c5ncccc5F)cnc34)ccc2n1 (stereo not shown) [Example 49, (3-(3-(4-chloro-2-methyl-2H-indazol-5-yl)-1H-pyrazolo[3,4-b]pyrazin-6-yl)-7-(3-fluoropyridin-2-yl)-3-azabicyclo[4.1.0]heptan-7-yl)methanamine]
5 | < 500 nM | < 1000 nM | NC[C@]1(c2ccccc2F)[C@@H]2CCN(c3cnc4c(-c5ccc6cc[nH]c(=O)c6c5)n[nH]c4n3)C[C@@H]21 [Example 294, 7-(6-((1S,6R,7R)-7-(aminomethyl)-7-(2-fluorophenyl)-3-azabicyclo[4.1.0]heptan-3-yl)-1H-pyrazolo[3,4-b]pyrazin-3-yl)isoquinolin-1(2H)-one]
6 | < 500 nM | < 1000 nM | NC[C@]1(c2ccccc2F)[C@@H]2CCN(c3cnc4c(-c5ccc6c(c5)C(=O)NCC6)n[nH]c4n3)C[C@@H]21 [Example 251, 7-(6-((1S,6R,7R)-7-(aminomethyl)-7-(2-fluorophenyl)-3-azabicyclo[4.1.0]heptan-3-yl)-1H-pyrazolo[3,4-b]pyrazin-3-yl)-3,4-dihydroisoquinolin-1(2H)-one]
7 | < 500 nM | < 1000 nM | NC[C@]1(c2ccccc2F)[C@@H]2CCN(c3cnc4c(-c5ccnc(N)n5)n[nH]c4n3)C[C@@H]21 [Example 163, 4-(6-((1S,6R,7R)-7-(aminomethyl)-7-(2-fluorophenyl)-3-azabicyclo[4.1.0]heptan-3-yl)-1H-pyrazolo[3,4-b]pyrazin-3-yl)pyrimidin-2-amine]
8 | < 500 nM | < 1000 nM | COC(=O)c1ccc(-c2n[nH]c3nc(N4CC[C@@H]5[C@H](C4)[C@@]5(CN)c4ccccc4F)cnc23)c(Cl)c1 [Example 223, methyl 4-(6-((1S,6R,7R)-7-(aminomethyl)-7-(2-fluorophenyl)-3-azabicyclo[4.1.0]heptan-3-yl)-1H-pyrazolo[3,4-b]pyrazin-3-yl)-3-chlorobenzoate]
9 | < 500 nM | < 1000 nM | NCC1(c2ccsc2)C2CCN(c3cnc4c(-c5cccnc5C(F)(F)F)n[nH]c4n3)CC21 (stereo not shown) [Example 96, (7-(thiophen-3-yl)-3-(3-(2-(trifluoromethyl)pyridin-3-yl)-1H-pyrazolo[3,4-b]pyrazin-6-yl)-3-azabicyclo[4.1.0]heptan-7-yl)methanamine]
10 | < 500 nM | < 1000 nM | NC[C@]1(c2ccccc2F)[C@@H]2CCN(c3cnc4c(-c5ccc(C(N)=O)c6ncccc56)n[nH]c4n3)C[C@@H]21 [Example 220, 5-(6-((1S,6R,7R)-7-(aminomethyl)-7-(2-fluorophenyl)-3-azabicyclo[4.1.0]heptan-3-yl)-1H-pyrazolo[3,4-b]pyrazin-3-yl)quinoline-8-carboxamide]
11 | < 500 nM | < 1000 nM | Cc1nc2ccc(-c3n[nH]c4nc(N5CC[C@@H]6[C@H](C5)[C@@]6(CN)c5ccon5)cnc34)c(Cl)c2s1 [Example 124, ((1S,6R,7S)-3-(3-(7-chloro-2-methylbenzo[d]thiazol-6-yl)-1H-pyrazolo[3,4-b]pyrazin-6-yl)-7-(isoxazol-3-yl)-3-azabicyclo[4.1.0]heptan-7-yl)methanamine]
12 | < 500 nM | > 5000 nM | NC[C@]1(c2ccccc2F)[C@@H]2CCN(c3cnc(Sc4ccc(C(N)=O)c5ncccc45)c(N)n3)C[C@@H]21 [Example 525, 5-((3-amino-5-((1S,6R,7R)-7-(aminomethyl)-7-(2-fluorophenyl)-3-azabicyclo[4.1.0]heptan-3-yl)pyrazin-2-yl)thio)quinoline-8-carboxamide]
13 | < 500 nM | < 1000 nM | Cc1csc([C@@]2(CN)[C@@H]3CN(c4nc5[nH]nc(-c6ccc7nn(C)cc7c6Cl)c5c(=O)n4C)C[C@@H]32)n1 [Example 472, 6-((1R,5S,6r)-6-(aminomethyl)-6-(4-methylthiazol-2-yl)-3-azabicyclo[3.1.0]hexan-3-yl)-3-(4-chloro-2-methyl-2H-indazol-5-yl)-5-methyl-1,5-dihydro-4H-pyrazolo[3,4-d]pyrimidin-4-one]
14 | < 500 nM | < 1000 nM | NC[C@]1(c2ccccc2F)[C@@H]2CCN(c3cnc4c(-c5ccc6c(c5)CCN6)n[nH]c4n3)C[C@@H]21 [Example 312, ((1S,6R,7R)-7-(2-fluorophenyl)-3-(3-(indolin-5-yl)-1H-pyrazolo[3,4-b]pyrazin-6-yl)-3-azabicyclo[4.1.0]heptan-7-yl)methanamine]
15 | < 500 nM | < 1000 nM | Cc1nccc(Sc2ccc3nc(N4CC[C@@H]5[C@H](C4)[C@@]5(CN)c4cc(F)ccc4F)cnc3n2)c1F [Example 426, ((1S,6R,7R)-7-(2,5-difluorophenyl)-3-(6-((3-fluoro-2-methylpyridin-4-yl)thio)pyrido[2,3-b]pyrazin-2-yl)-3-azabicyclo[4.1.0]heptan-7-yl)methanamine]
16 | < 500 nM | < 1000 nM | Cc1ccc2c(-c3n[nH]c4nc(N5CC[C@@H]6[C@H](C5)[C@@]6(CN)c5ccccc5F)cnc34)ccc(F)c2n1 [Example 226, ((1S,6R,7R)-3-(3-(8-fluoro-2-methylquinolin-5-yl)-1H-pyrazolo[3,4-b]pyrazin-6-yl)-7-(2-fluorophenyl)-3-azabicyclo[4.1.0]heptan-7-yl)methanamine]
17 | 500 to 3000 nM | > 5000 nM | Cc1cc(C2(CN)C3CCN(c4cnc5c(-c6ccnc7c6OC[C@@H]6CCCN76)n[nH]c5n4)CC32)no1 (stereo partly drawn) [Example 29, (7-(5-methylisoxazol-3-yl)-3-(3-((S)-6a,7,8,9-tetrahydro-6H-pyrido[3,2-b]pyrrolo[1,2-d][1,4]oxazin-4-yl)-1H-pyrazolo[3,4-b]pyrazin-6-yl)-3-azabicyclo[4.1.0]heptan-7-yl)methanamine]
18 | < 500 nM | < 1000 nM | Cc1cc(C2(CN)C3CCN(c4cnc5c(Sc6ccnc(N)c6Cl)n[nH]c5n4)CC32)no1 (stereo not shown) [Example 53, 4-((6-(7-(aminomethyl)-7-(5-methylisoxazol-3-yl)-3-azabicyclo[4.1.0]heptan-3-yl)-1H-pyrazolo[3,4-b]pyrazin-3-yl)thio)-3-chloropyridin-2-amine]
19 | < 500 nM | < 1000 nM | NC[C@]1(c2ccccc2F)[C@@H]2CCN(c3cnc4c(-c5ccc(O)c(F)c5F)n[nH]c4n3)C[C@@H]21 [Example 374, 4-(6-((1S,6R,7R)-7-(aminomethyl)-7-(2-fluorophenyl)-3-azabicyclo[4.1.0]heptan-3-yl)-1H-pyrazolo[3,4-b]pyrazin-3-yl)-2,3-difluorophenol]
20 | < 500 nM | < 1000 nM | NC[C@]1(c2ccccc2F)[C@@H]2CCN(c3cnc4c(-c5ccc6c(c5)NC(=O)C6)n[nH]c4n3)C[C@@H]21 [Example 233, 6-(6-((1S,6R,7R)-7-(aminomethyl)-7-(2-fluorophenyl)-3-azabicyclo[4.1.0]heptan-3-yl)-1H-pyrazolo[3,4-b]pyrazin-3-yl)indolin-2-one]
21 | < 500 nM | < 1000 nM | Cc1csc([C@@]2(CN)[C@@H]3CCN(c4cnc5c(-c6cccc(Cl)c6Cl)n[nH]c5n4)C[C@@H]32)n1 [Example 78, ((1S,6R,7S)-3-(3-(2,3-dichlorophenyl)-1H-pyrazolo[3,4-b]pyrazin-6-yl)-7-(4-methylthiazol-2-yl)-3-azabicyclo[4.1.0]heptan-7-yl)methanamine]
22 | > 3000 nM | > 5000 nM | Cc1nn(C)c(C)c1-c1n[nH]c2nc(N3CC[C@@H]4[C@H](C3)[C@@]4(CN)c3ccccc3F)cnc12 [Example 371, ((1S,6R,7R)-7-(2-fluorophenyl)-3-(3-(1,3,5-trimethyl-1H-pyrazol-4-yl)-1H-pyrazolo[3,4-b]pyrazin-6-yl)-3-azabicyclo[4.1.0]heptan-7-yl)methanamine]
23 | < 500 nM | < 1000 nM | NC[C@]1(c2ccccc2F)[C@@H]2CCN(c3cnc4c(-c5cc6cccnc6cc5F)n[nH]c4n3)C[C@@H]21 [Example 175, ((1S,6R,7R)-7-(2-fluorophenyl)-3-(3-(7-fluoroquinolin-6-yl)-1H-pyrazolo[3,4-b]pyrazin-6-yl)-3-azabicyclo[4.1.0]heptan-7-yl)methanamine]
